Earlier results in patent US8133904B2, “Cannabinoid receptor antagonists/inverse agonists useful for treating obesity” (Jenrin Discovery, Inc., priority 2007, dated 2012).

Details: patients with type 2 diabetes not treated with other anti-diabetic medications; after six months of treatment; baseline value 7.9

## Cc1c(C(=O)NN2CCCCC2)nn(-c2ccc(Cl)cc2Cl)c1-c1ccc(Cl)cc1 [rimonabant]
  HbA1c levels lowered: 0.8%
